PubChem BioAssay (NCI)
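Interpolation was linear, between the two tested concentrations surrounding the appropriate level; five concentrations were tested over 48 hours in 96-well plates. TGI is the concentration that stops growth completely.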

What was measured:
Assay in all cases: NCI anticancer screen, dose series, 48 h
SK-MEL-5 melanoma = system: SK-MEL-5 melanoma
UO-31 renal = system: UO-31 renal
RPMI-8226 leukemia = system: RPMI-8226 leukemia
SR leukemia = system: SR leukemia
SF-268 CNS = system: SF-268 CNS
NCI-H522 lung = system: NCI-H522 lung
HOP-62 NSCLC = system: HOP-62 NSCLC
HCT-116 colon = system: HCT-116 colon
MDA-MB-435 = system: MDA-MB-435
SK-MEL-2 melanoma = system: SK-MEL-2 melanoma
SF-539 CNS = system: SF-539 CNS
HCC-2998 colon = system: HCC-2998 colon
SK-MEL-28 melanoma = system: SK-MEL-28 melanoma
NCI-H23 lung = system: NCI-H23 lung
M14 melanoma = system: M14 melanoma
IGROV1 ovarian = system: IGROV1 ovarian
EKVX NSCLC = system: EKVX NSCLC
MDA-MB-231 breast = system: MDA-MB-231 breast
OVCAR-5 ovarian = system: OVCAR-5 ovarian
HL-60(TB) leukemia = system: HL-60(TB) leukemia
K-562 leukemia = system: K-562 leukemia
U251 CNS = system: U251 CNS
OVCAR-3 ovarian = system: OVCAR-3 ovarian
SNB-19 CNS = system: SNB-19 CNS
NCI-H460 lung = system: NCI-H460 lung
PC-3 prostate = system: PC-3 prostate
CCRF-CEM leukemia = system: CCRF-CEM leukemia
UACC-257 melanoma = system: UACC-257 melanoma
HOP-92 NSCLC = system: HOP-92 NSCLC
SNB-75 CNS = system: SNB-75 CNS
KM12 colon = system: KM12 colon
CAKI-1 renal = system: CAKI-1 renal
SK-OV-3 ovarian = system: SK-OV-3 ovarian
HT29 colon = system: HT29 colon
BT-549 breast = system: BT-549 breast
NCI/ADR-RES ovarian = system: NCI/ADR-RES ovarian
HCT-15 colon = system: HCT-15 colon
OVCAR-4 ovarian = system: OVCAR-4 ovarian
MCF7 breast = system: MCF7 breast
ACHN renal = system: ACHN renal
786-0 renal = system: 786-0 renal
UACC-62 melanoma = system: UACC-62 melanoma
SW-620 colon = system: SW-620 colon
TK-10 renal = system: TK-10 renal
MOLT-4 leukemia = system: MOLT-4 leukemia
OVCAR-8 ovarian = system: OVCAR-8 ovarian
NCI-H226 lung = system: NCI-H226 lung
HS 578T breast = system: HS 578T breast
A549 NSCLC = system: A549 NSCLC
SF-295 CNS = system: SF-295 CNS
COLO 205 colon = system: COLO 205 colon
RXF 393 renal = system: RXF 393 renal
MALME-3M melanoma = system: MALME-3M melanoma

Measured: TGI

Cc1ccccc1N=Nc1ccc(N=Nc2c(O)ccc3cc(S(=O)(=O)O)cc(S(=O)(=O)O)c23)c(C)c1
> 100 µM: all assays above
